Source: patent US20070049564A1 (Wyeth, priority 2005, published 2007)
Converted amounts (≈) assume the structure as drawn. Like-named read-outs stand apart in the source and are kept apart here.

Key:
[1] = system: E. coli GC 2270; test: MIC, broth microdilution; conditions: Escherichia coli
[2] = system: S. pneumoniae+ GC 4465; test: MIC, broth microdilution; conditions: Streptococcus pneumoniae
[3] = system: S. pyogenes GC 4563; test: MIC, broth microdilution; conditions: Streptococcus pyogenes
[4] = system: E. coli GC 1073; test: MIC, broth microdilution; conditions: Escherichia coli
[5] = system: S. epidermidis GC 4935; test: MIC, broth microdilution; conditions: Staphylococcus epidermidis
[6] = system: E. coli GC 2234; test: MIC, broth microdilution; conditions: Escherichia coli
[7] = system: E. coli GC 2233; test: MIC, broth microdilution; conditions: Escherichia coli
[8] = system: c. albicans GC 3066; test: MIC, broth microdilution
[9] = system: P. aeruginosa GC 2214; test: MIC, broth microdilution; conditions: Pseudomonas aeruginosa
[10] = system: Staph. aureus Smith; test: In vivo activity (oral, iv; ED50) against Staph. aureus Smith in mice
Method: Representative examples of compounds of Formula I were tested for the oral efficacy using S. aureus Smith in mice.

[11] = system: E. faecium GC 4556; test: MIC, broth microdilution; conditions: Enterococcus faecium
Method: Antimicrobial susceptibility testing. The in vitro activities of the antibiotics are determined by the broth microdilution method as recommended by the National Committee for Clinical Laboratory Standards (NCCLS) (1). Mueller-Hinton II broth (MHBII)(BBL Cockeysville, Md.) is the medium employed in the testing procedures. Microtiter plates containing serial dilutions of each antimicrobial agent are inoculated with each organism to yield the appropriate density (10^5 CFU/ml) in a 100 μl final volume. The plates are incubated for 18-22 hours at 35° C. in ambient air.
Representative compounds were first incubated in mouse serum for an hour prior to the in vitro testing against a panel of selected gram-positive and gram-negative bacteria strains. All compounds were also pre-incubated in water for an hour prior to testing as control. Representative compounds of Formula I were incubated in human serum prior to MIC determination.

[12] = system: S. aureus GC 2216; test: MIC, broth microdilution; conditions: Staphylococcus aureus
[13] = system: E. coli GC 2271; test: MIC, broth microdilution; conditions: Escherichia coli
[14] = system: E. coli GC 2235; test: MIC, broth microdilution; conditions: Escherichia coli
[15] = system: S. aureus GC 1079; test: MIC, broth microdilution; conditions: Staphylococcus aureus
[16] = system: E. faecalis GC 2242; test: MIC, broth microdilution; conditions: Enterococcus faecalis
[17] = system: E. coli GC 4559; test: MIC, broth microdilution; conditions: Escherichia coli
[18] = system: S. aureus GC 1131; test: MIC, broth microdilution; conditions: Staphylococcus aureus
[19] = system: S. aureus GC 6335; test: MIC, broth microdilution; conditions: Staphylococcus aureus
[20] = system: E. coli GC 2236; test: MIC, broth microdilution; conditions: Escherichia coli

SMILES: Cc1ccc(C(=O)OCOC(=O)N(CC(=O)Nc2cc(N(C)C)c3c(c2O)C(=O)C2=C(O)[C@]4(O)C(=O)C(C(N)=O)=C(O)[C@@H](N(C)C)[C@@H]4C[C@@H]2C3)C(C)(C)C)cc1 [Example 47]
- MIC ([1]; GC2270, read-out: MINIMAL INHIBITORY CONCENTRATION MIC, pre-incubated in Human Serum): 16 µg/mL (≈ 20.6 µM)
- MIC ([1]; GC2270, read-out: MINIMAL INHIBITORY CONCENTRATION MIC, pre-incubated in Mouse Serum): 0.5 µg/mL (≈ 0.643 µM)
- MIC ([1]; GC2270, read-out: MINIMAL INHIBITORY CONCENTRATION MIC, pre-incubated in Water): > 64 µg/mL
- MIC ([2]; read-out: MINIMAL INHIBITORY CONCENTRATION MIC, pre-incubated in Human Serum): 2 µg/mL (≈ 2.57 µM)
- MIC ([2]; read-out: MINIMAL INHIBITORY CONCENTRATION MIC, pre-incubated in Mouse Serum): 2 µg/mL (≈ 2.57 µM)
- MIC ([2]; read-out: MINIMAL INHIBITORY CONCENTRATION MIC, pre-incubated in Water): 4 µg/mL (≈ 5.14 µM)
- MIC ([3]; GC4563, read-out: MINIMAL INHIBITORY CONCENTRATION MIC, pre-incubated in Human Serum): 0.25 µg/mL (≈ 0.321 µM)
- MIC ([3]; GC4563, read-out: MINIMAL INHIBITORY CONCENTRATION MIC, pre-incubated in Mouse Serum): 0.12 µg/mL (≈ 0.154 µM)
- MIC ([3]; GC4563, read-out: MINIMAL INHIBITORY CONCENTRATION MIC, pre-incubated in Water): 0.25 µg/mL (≈ 0.321 µM)
- MIC ([4]; GC1073, read-out: MINIMAL INHIBITORY CONCENTRATION MIC, pre-incubated in Human Serum): 32 µg/mL (≈ 41.1 µM)
- MIC ([4]; GC1073, read-out: MINIMAL INHIBITORY CONCENTRATION MIC, pre-incubated in Mouse Serum): 2 µg/mL (≈ 2.57 µM)
- MIC ([4]; GC1073, read-out: MINIMAL INHIBITORY CONCENTRATION MIC, pre-incubated in Water): > 64 µg/mL
- MIC ([5]; GC4935, read-out: MINIMAL INHIBITORY CONCENTRATION MIC, pre-incubated in Human Serum): 4 µg/mL (≈ 5.14 µM)
- MIC ([5]; GC4935, read-out: MINIMAL INHIBITORY CONCENTRATION MIC, pre-incubated in Mouse Serum): 2 µg/mL (≈ 2.57 µM)
- MIC ([5]; GC4935, read-out: MINIMAL INHIBITORY CONCENTRATION MIC, pre-incubated in Water): 4 µg/mL (≈ 5.14 µM)
- MIC ([6]; GC2234, read-out: MINIMAL INHIBITORY CONCENTRATION MIC, pre-incubated in Human Serum): 16 µg/mL (≈ 20.6 µM)
- MIC ([6]; GC2234, read-out: MINIMAL INHIBITORY CONCENTRATION MIC, pre-incubated in Mouse Serum): 1 µg/mL (≈ 1.29 µM)
- MIC ([6]; GC2234, read-out: MINIMAL INHIBITORY CONCENTRATION MIC, pre-incubated in Water): > 64 µg/mL
- MIC ([7]; GC2233, read-out: MINIMAL INHIBITORY CONCENTRATION MIC, pre-incubated in Human Serum): 16 µg/mL (≈ 20.6 µM)
- MIC ([7]; GC2233, read-out: MINIMAL INHIBITORY CONCENTRATION MIC, pre-incubated in Mouse Serum): 0.5 µg/mL (≈ 0.643 µM)
- MIC ([7]; GC2233, read-out: MINIMAL INHIBITORY CONCENTRATION MIC, pre-incubated in Water): > 64 µg/mL
- MIC ([8]; Candida albicans, GC3066, read-out: MINIMAL INHIBITORY CONCENTRATION MIC): > 64 µg/mL
- MINIMAL INHIBITORY CONCENTRATION MIC ([8]; pre-incubated in Human Serum): >64 UG/ML
- MINIMAL INHIBITORY CONCENTRATION MIC ([8]; pre-incubated in Mouse Serum): >64 UG/ML
- MIC ([9]; GC2214, read-out: MINIMAL INHIBITORY CONCENTRATION MIC, pre-incubated in Human Serum): > 64 µg/mL
- MIC ([9]; GC2214, read-out: MINIMAL INHIBITORY CONCENTRATION MIC, pre-incubated in Mouse Serum): 32 µg/mL (≈ 41.1 µM)
- MIC ([9]; GC2214, read-out: MINIMAL INHIBITORY CONCENTRATION MIC, pre-incubated in Water): > 64 µg/mL
- ED50 ([10]; Staphylococcus aureus, in Mus musculus, iv, read-out: ED50 SIV (Staph aureus Smith)): 1.2 mg/kg
- ED50 ([10]; Staphylococcus aureus, in Mus musculus, po, read-out: ED50 SOD (Staph aureus Smith)): 14 mg/kg
- ED50 ([10]; Staphylococcus aureus, in Mus musculus, po, read-out: ED50 Staph Smith SOD): 14 mg/kg
- ED50 ([10]; iv, read-out: ED50 Staph Smith SIV): 1.2 mg/kg
- MIC ([11]; GC4556, read-out: MINIMAL INHIBITORY CONCENTRATION MIC, pre-incubated in Human Serum): 4 µg/mL (≈ 5.14 µM)
- MIC ([11]; GC4556, read-out: MINIMAL INHIBITORY CONCENTRATION MIC, pre-incubated in Mouse Serum): 1 µg/mL (≈ 1.29 µM)
- MIC ([11]; GC4556, read-out: MINIMAL INHIBITORY CONCENTRATION MIC, pre-incubated in Water): 4 µg/mL (≈ 5.14 µM)
- MIC ([12]; GC2216, read-out: MINIMAL INHIBITORY CONCENTRATION MIC, pre-incubated in Human Serum): 1 µg/mL (≈ 1.29 µM)
- MIC ([12]; GC2216, read-out: MINIMAL INHIBITORY CONCENTRATION MIC, pre-incubated in Mouse Serum): 1 µg/mL (≈ 1.29 µM)
- MIC ([12]; GC2216, read-out: MINIMAL INHIBITORY CONCENTRATION MIC, pre-incubated in Water): 2 µg/mL (≈ 2.57 µM)
- MIC ([13]; GC2271, read-out: MINIMAL INHIBITORY CONCENTRATION MIC, pre-incubated in Human Serum): 16 µg/mL (≈ 20.6 µM)
- MIC ([13]; GC2271, read-out: MINIMAL INHIBITORY CONCENTRATION MIC, pre-incubated in Mouse Serum): 1 µg/mL (≈ 1.29 µM)
- MIC ([13]; GC2271, read-out: MINIMAL INHIBITORY CONCENTRATION MIC, pre-incubated in Water): > 64 µg/mL
- MIC ([14]; GC2235, read-out: MINIMAL INHIBITORY CONCENTRATION MIC, pre-incubated in Human Serum): 16 µg/mL (≈ 20.6 µM)
- MIC ([14]; GC2235, read-out: MINIMAL INHIBITORY CONCENTRATION MIC, pre-incubated in Mouse Serum): 1 µg/mL (≈ 1.29 µM)
- MIC ([14]; GC2235, read-out: MINIMAL INHIBITORY CONCENTRATION MIC, pre-incubated in Water): > 64 µg/mL
- MIC ([15]; GC1079, read-out: MINIMAL INHIBITORY CONCENTRATION MIC, pre-incubated in Human Serum): 2 µg/mL (≈ 2.57 µM)
- MIC ([15]; GC1079, read-out: MINIMAL INHIBITORY CONCENTRATION MIC, pre-incubated in Mouse Serum): 1 µg/mL (≈ 1.29 µM)
- MIC ([15]; GC1079, read-out: MINIMAL INHIBITORY CONCENTRATION MIC, pre-incubated in Water): 2 µg/mL (≈ 2.57 µM)
- MIC ([16]; GC2242, read-out: MINIMAL INHIBITORY CONCENTRATION MIC, pre-incubated in Human Serum): 4 µg/mL (≈ 5.14 µM)
- MIC ([16]; GC2242, read-out: MINIMAL INHIBITORY CONCENTRATION MIC, pre-incubated in Mouse Serum): 1 µg/mL (≈ 1.29 µM)
- MIC ([16]; GC2242, read-out: MINIMAL INHIBITORY CONCENTRATION MIC, pre-incubated in Water): 4 µg/mL (≈ 5.14 µM)
- MIC ([17]; GC4559, read-out: MINIMAL INHIBITORY CONCENTRATION MIC, pre-incubated in Human Serum): 64 µg/mL (≈ 82.3 µM)
- MIC ([17]; GC4559, read-out: MINIMAL INHIBITORY CONCENTRATION MIC, pre-incubated in Mouse Serum): 2 µg/mL (≈ 2.57 µM)
- MIC ([17]; GC4559, read-out: MINIMAL INHIBITORY CONCENTRATION MIC, pre-incubated in Water): > 64 µg/mL
- MIC ([18]; GC1131, read-out: MINIMAL INHIBITORY CONCENTRATION MIC, pre-incubated in Human Serum): 2 µg/mL (≈ 2.57 µM)
- MIC ([18]; GC1131, read-out: MINIMAL INHIBITORY CONCENTRATION MIC, pre-incubated in Mouse Serum): 1 µg/mL (≈ 1.29 µM)
- MIC ([18]; GC1131, read-out: MINIMAL INHIBITORY CONCENTRATION MIC, pre-incubated in Water): 2 µg/mL (≈ 2.57 µM)
- MIC ([19]; GC6335, read-out: MINIMAL INHIBITORY CONCENTRATION MIC, pre-incubated in Human Serum): 2 µg/mL (≈ 2.57 µM)
- MIC ([19]; GC6335, read-out: MINIMAL INHIBITORY CONCENTRATION MIC, pre-incubated in Mouse Serum): 1 µg/mL (≈ 1.29 µM)
- MIC ([19]; GC6335, read-out: MINIMAL INHIBITORY CONCENTRATION MIC, pre-incubated in Water): 2 µg/mL (≈ 2.57 µM)
- MIC ([20]; GC2236, read-out: MINIMAL INHIBITORY CONCENTRATION MIC, pre-incubated in Human Serum): 32 µg/mL (≈ 41.1 µM)
- MIC ([20]; GC2236, read-out: MINIMAL INHIBITORY CONCENTRATION MIC, pre-incubated in Mouse Serum): 1 µg/mL (≈ 1.29 µM)
- MIC ([20]; GC2236, read-out: MINIMAL INHIBITORY CONCENTRATION MIC, pre-incubated in Water): > 64 µg/mL
